Experimental data from patent US11261152B2, “Inhibitors of the N-terminal domain of the androgen receptor” (The Regents of the University of California, priority 2017, dated 2022).
Entries after “also recorded” stand apart in the source; their conditions may differ.

Key:
[1] = tested on: AR positive PCa cells (LNCaP, LNCaP-AR, CWR22, 22Rv1, LAPC4); experiment: MTT / CellTiter GLO cell viability, AR positive prostate cancer cells; details: for MTT AR-Pos: Table 3 grade HIGH/MED/LOW, grades not defined; for growth inhibitory / suppressive effects as compared to JN018 / growth of AR expressing prostate cancer cells: result in words
Protocol: (§3) The results are means of quadruplicate expts±s.d. Top panel: CellTiter GLO luminescent bioassay (arbitrary units on vertical axis). Bottom panel: classical MTT assay ([blue/yellow]=[viable/non-viable]).
(§4) Experiments were performed in quadruplicate; results are means+/−s.d.
Results were normalized to that of vehicle control. Experiments were performed in quadruplicate; results are means+/−s.d.
Next, the effects of the compounds on growth of prostate cancer cell lines in vitro were evaluated.

[2] = tested on: androgen response element (ARE); experiment: ARE reporter assay (tandem copies of the androgen response element); type: cell-based; details: for ARE: Table 3 grade HIGH/MED/LOW, grades not defined; for reporter activity driven by the ARE: result in words
Protocol: FIG. 11A. Effects of JN series compounds in reporter assays for androgen response element. Experiments were performed in triplicate and results are means+/−s.d.

[3] = tested on: AR-null PCa cells (DU145, PC3); experiment: MTT / CellTiter GLO cell viability, AR-null prostate cancer cells; details: for MTT AR-Neg: Table 3 grade HIGH/MED/LOW, grades not defined
Protocol: as §3, §4
AR null PC3 cells were exposed to the indicated compounds for 6 days; cell viability was measured by MTT assay. Results were normalized to that of vehicle control. Experiments were performed in quadruplicate; results are means+/−s.d.
For each compound and concentration in the figure, the bars represent relative cell viability of 22Rv1, LAPC4, and DU145, from left to right.
For each compound and concentration in the figure, the bars represent relative cell viability of CWR22 and PC3, from left to right.

[4] = tested on: AR transcriptional activity (MMTV reporter); experiment: MMTV reporter assay; type: cell-based; details: for MMTV: Table 3 grade HIGH/MED/LOW, grades not defined
A549 = experiment: Growth of lung cancer cells; type: cell-based; details: not shown
Text: Further modifications of R1 yielded compounds with a spectrum of growth suppressive effects.

[5] = tested on: LNCaP-AR castration resistant cell line; experiment: LNCaP-AR castration resistant xenograft in castrated nude mice; type: in vivo; details: for tumor growth of LNCaP-AR model in castrated nude mice: oral gavage once per day, five days per week (Mon-Fri); for signs of toxicity in mice: xenograft study, oral gavage Mon-Fri
Protocol: FIG. 12A. In vivo effects of JN series compounds.
FIG. 12B. In vivo effects of JN series compounds.
Selected compounds were tested in a mouse xenograft model. In this model, the LNCaP-AR castration resistant cell line was grown subcutaneously in the flanks of castrated nude mice. When tumors reached 150-200 mm^3, mice were administered selected JN series compounds, vehicle or positive control by oral gavage once per day for five days per week (Mon-Fri). […].

c-Jun TAD = experiment: JUN-TAD fused to GAL4 DNA-binding domain reporter assay; type: cell-based; details: Table 3 grade HIGH/MED/LOW, grades not defined
Text: (§1) The inhibitory activity of JN018 was further evaluated in experiments in which the AR transactivation domain (TAD) or the c-Jun or CREB TAD was fused to the heterologous GAL4 DNA-binding domain and thereby drive reporter gene expression governed by the GAL4 response element (FIG. 1).

CREB TAD = experiment: CREB-TAD fused to GAL4 DNA-binding domain reporter assay; type: cell-based; details: Table 3 grade HIGH/MED/LOW, grades not defined
Text: as §1

[6] = target: T1, AR transactivation domain (TAD) (Homo sapiens, UniProt P10275); experiment: AR-TAD fused to GAL4 DNA-binding domain reporter assay; type: cell-based; details: Table 3 grade HIGH/MED/LOW, grades not defined
T1 construct: expressed in transfected cells
T1 sequence (P10275 1-559 limits assumed): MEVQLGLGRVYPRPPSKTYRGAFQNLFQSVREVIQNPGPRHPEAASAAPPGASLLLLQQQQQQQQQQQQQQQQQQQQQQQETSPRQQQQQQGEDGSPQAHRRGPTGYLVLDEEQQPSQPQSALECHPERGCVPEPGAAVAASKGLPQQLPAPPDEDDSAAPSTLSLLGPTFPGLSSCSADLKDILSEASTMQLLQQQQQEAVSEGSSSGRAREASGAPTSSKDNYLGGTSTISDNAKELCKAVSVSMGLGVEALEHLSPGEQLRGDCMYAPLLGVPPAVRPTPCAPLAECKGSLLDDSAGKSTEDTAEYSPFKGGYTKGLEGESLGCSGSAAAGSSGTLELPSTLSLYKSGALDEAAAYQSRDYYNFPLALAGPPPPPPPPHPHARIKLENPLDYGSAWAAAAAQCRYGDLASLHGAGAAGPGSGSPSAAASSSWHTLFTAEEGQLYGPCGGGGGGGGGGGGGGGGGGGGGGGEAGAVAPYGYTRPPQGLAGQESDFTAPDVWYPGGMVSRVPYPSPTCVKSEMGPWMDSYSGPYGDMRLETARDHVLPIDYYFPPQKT
Text: as §1

[7] = tested on: AR transcriptional activity (PSA promoter/enhancer reporter); experiment: PSA promoter/enhancer reporter assay; type: cell-based; details: result in words
Text: (§2) Additional compounds have been generated with sequential numbering through JN136. In vitro biologic activity and biochemical activity/selectivity for AR inhibition have been tested for JN104-133.

[8] = tested on: non-AR-dependent reporter systems; experiment: Non-AR-dependent reporter systems; type: cell-based; details: result in words
Text: as §2

[9] = tested on: glucocorticoid response element (GRE) / glucocorticoid receptor; experiment: GRE reporter assay; type: cell-based; details: Table 3 grade HIGH/MED/LOW, grades not defined
Protocol: FIG. 11B. Effects of JN series compounds in reporter assays for glucocorticoid response element. Experiments were performed in triplicate and results are means+/−s.d.

[10] = tested on: AP1 mediated reporter activity; experiment: AP1 reporter assay; type: cell-based; details: Table 3 grade HIGH/MED/LOW, grades not defined

C=C(CN(C)Cc1ccccc1)C(=O)/C(=C/c1ccc(Cl)cc1F)c1ccccc1.Cl [JN083]
MTT AR-Pos [1]: MED | ARE [2]: LOW | MTT AR-Neg [3]: MED | MMTV [4]: HIGH

C/C(=C\c1ccc(Cl)cc1)C(=O)c1ccccc1 [JN026, (E)-3-(4-Chlorophenyl)-2-methyl-1-phenylprop-2-en-1-one]
ARE [2]: LOW | MMTV [4]: LOW

C=C(C)C(=O)NC(=O)/C(=C/c1ccc(Cl)cc1)c1ccc(F)cc1 [JN103]
growth inhibitory / suppressive effects as compared to JN018 [1]: improved growth suppressive effects | growth of AR expressing prostate cancer cells [1]: suppressed growth | reporter activity driven by the ARE [2]: inhibited reporter activity | growth of AR null prostate cancer cells ([3]; result in words): did not influence growth | growth of lung cancer cells (A549) (A549): did not influence growth | tumor growth of LNCaP-AR model in castrated nude mice [5]: inhibit the growth; also recorded: demonstrated anti-tumor effects | signs of toxicity in mice [5]: limited or no outward signs of toxicity

CN(C/C(=C\c1ccc(Cl)cc1)C(=O)c1ccccc1)Cc1ccccc1 [JN017, (E)-2-((Benzyl(methyl)amino)methyl)-3-(4-chlorophenyl)-1-phenylprop-2-en-1-one]
MTT AR-Pos [1]: HIGH | JUN-TAD (c-Jun TAD): LOW | ARE [2]: LOW | CREB-TAD (CREB TAD): LOW | AR-TAD [6]: HIGH | MTT AR-Neg [3]: MED | MMTV [4]: LOW

C=C(C)C(=O)NC(=O)/C(=C/c1ccc(Cl)cc1)c1ccc(F)cc1F [JN118]
growth inhibitory / suppressive effects as compared to JN018 [1]: improved in vitro growth inhibitory effects | reporter activity driven by the ARE [2]: excellent inhibitory effects | off target effects on AR-null prostate cancer cell lines compared to JN018 ([3]; result in words): reduced off target effects | reporter activity driven by the MMTV promoter ([4]; result in words): excellent inhibitory effects | AR transcriptional activity in PSA promoter/enhancer reporter [7]: excellent inhibitory effects | effects on non-AR-dependent reporter systems [8]: minimal effects

C=C(CN(C)Cc1ccccc1)C(=O)/C(=C/c1ccc(Cl)c(F)c1)c1ccccc1.Cl [JN082]
MTT AR-Pos [1]: LOW | ARE [2]: LOW | MTT AR-Neg [3]: LOW | MMTV [4]: LOW

CN(C/C(=C\c1ccc(Cl)c(Cl)c1)C(=O)c1ccccc1)Cc1ccccc1 [JN031]
ARE [2]: LOW | MMTV [4]: LOW

C=CC(O)/C(=C\c1ccc(Cl)cc1)c1ccccc1 (centres unmarked) [JN003, (Z)-1-(4-Chlorophenyl)-2-phenylpenta-1,4-dien-3-ol]
MTT AR-Pos [1]: LOW | JUN-TAD (c-Jun TAD): LOW | CREB-TAD (CREB TAD): LOW | AR-TAD [6]: HIGH | GRE [9]: LOW | MTT AR-Neg [3]: LOW | MMTV [4]: HIGH

O=C(/C(=C/c1ccc(Cl)cc1)CN1CCOCC1)c1ccccc1 [JN029]
ARE [2]: HIGH | MMTV [4]: HIGH

C=C(CN(C)Cc1ccccc1)C(=O)/C(=C/c1cccc(Cl)c1)c1ccccc1.Cl [JN060]
MTT AR-Pos [1]: HIGH | ARE [2]: HIGH | GRE [9]: HIGH | MTT AR-Neg [3]: HIGH | MMTV [4]: HIGH

CN(C/C(=C\c1ccc(C(F)(F)F)cc1)C(=O)c1ccccc1)Cc1ccccc1 [JN044]
MTT AR-Pos [1]: HIGH | JUN-TAD (c-Jun TAD): LOW | ARE [2]: HIGH | CREB-TAD (CREB TAD): MED | AR-TAD [6]: HIGH | GRE [9]: HIGH | MTT AR-Neg [3]: MED | MMTV [4]: MED

CN(C/C(=C\c1cccc(Cl)c1)C(=O)c1ccccc1)Cc1ccccc1 [JN048]
MTT AR-Pos [1]: HIGH | JUN-TAD (c-Jun TAD): LOW | ARE [2]: HIGH | CREB-TAD (CREB TAD): LOW | AR-TAD [6]: HIGH | GRE [9]: LOW | MTT AR-Neg [3]: LOW | MMTV [4]: HIGH

C=C(CN(C)Cc1ccccc1)C(=O)/C(=C/c1ccc(Cl)c(Cl)c1)c1ccccc1.Cl [JN057]
MTT AR-Pos [1]: MED | GRE [9]: HIGH | MTT AR-Neg [3]: MED | MMTV [4]: MED

CN(C/C(=C\c1ccc(Br)cc1)C(=O)c1ccccc1)Cc1ccccc1 [JN022]
MTT AR-Pos [1]: HIGH | JUN-TAD (c-Jun TAD): HIGH | ARE [2]: LOW | CREB-TAD (CREB TAD): LOW | AR-TAD [6]: HIGH | MTT AR-Neg [3]: HIGH | MMTV [4]: HIGH

CN(C/C(=C\c1ccc(Cl)cc1)C(=O)c1ccc(Cl)cc1)Cc1ccccc1 [JN050]
MTT AR-Pos [1]: HIGH | JUN-TAD (c-Jun TAD): LOW | ARE [2]: HIGH | CREB-TAD (CREB TAD): MED | AR-TAD [6]: HIGH | GRE [9]: HIGH | MTT AR-Neg [3]: MED | MMTV [4]: HIGH

O=C(CC1CO1)/C(=C/c1ccc(Cl)cc1)c1ccccc1 (centres unmarked) [JN097, (E)-4-(4-Chlorophenyl)-1-(oxiran-2-yl)-3-phenylbut-3-en-2-one]
growth inhibitory / suppressive effects as compared to JN018 [1]: enhanced growth inhibitory effects | reporter activity driven by the ARE [2]: inhibited reporter activity

CN(C)C/C(=C\c1ccc(Cl)cc1)C(=O)c1ccccc1 [JN024]
MTT AR-Pos [1]: HIGH | JUN-TAD (c-Jun TAD): HIGH | ARE [2]: HIGH | CREB-TAD (CREB TAD): HIGH | AR-TAD [6]: HIGH | MTT AR-Neg [3]: MED | MMTV [4]: HIGH

C=C(CN(C)Cc1ccccc1)C(=O)/C(=C/c1ccc(Cl)cc1)c1ccc(F)cc1.Cl [JN090]
tumor growth of LNCaP-AR model in castrated nude mice [5]: inhibit the growth; also recorded: demonstrated anti-tumor effects | signs of toxicity in mice [5]: limited or no outward signs of toxicity

O=C(/C=C/c1ccc(F)cc1)C(=Cc1ccc(F)cc1)c1ccccc1 [JN051]
MTT AR-Pos [1]: HIGH | ARE [2]: HIGH | GRE [9]: HIGH | MTT AR-Neg [3]: HIGH | MMTV [4]: HIGH

C=C(C)C(=O)NC(=O)/C(=C/c1ccc(Cl)cc1)c1ccccc1 [JN102, (E)-3-(4-Chlorophenyl)-N-methacryloyl-2-phenylacrylamide]
growth inhibitory / suppressive effects as compared to JN018 [1]: improved growth suppressive effects | growth of AR expressing prostate cancer cells [1]: suppressed growth | reporter activity driven by the ARE [2]: inhibited reporter activity | growth of AR null prostate cancer cells ([3]; result in words): did not influence growth | growth of lung cancer cells (A549) (A549): did not influence growth

Cc1ccc(/C=C(\CN(C)Cc2ccccc2)C(=O)c2ccccc2)cc1 [JN043]
MTT AR-Pos [1]: HIGH | JUN-TAD (c-Jun TAD): LOW | ARE [2]: HIGH | CREB-TAD (CREB TAD): MED | AR-TAD [6]: HIGH | GRE [9]: HIGH | MTT AR-Neg [3]: MED | MMTV [4]: HIGH

C=C(CN(C)Cc1ccccc1)C(=O)/C(=C\c1ccc(F)cc1)c1ccccc1.Cl [JN055]
ARE [2]: MED | GRE [9]: HIGH | MMTV [4]: MED

CN(C/C(=C\c1ccc(F)cc1)C(=O)c1ccccc1)Cc1ccccc1 [JN030]
ARE [2]: MED | MMTV [4]: MED

O=C(/C(=C/c1ccc(Cl)cc1)CN1CCCC1)c1ccccc1 [JN028]
ARE [2]: HIGH | MMTV [4]: HIGH

CNC(=O)c1ccc(N2C(=S)N(c3ccc(C#N)c(C(F)(F)F)c3)C(=O)C2(C)C)cc1F [MDV 3100, enzalutamide, reference compound]
MTT AR-Pos [1]: HIGH | JUN-TAD (c-Jun TAD): LOW | ARE [2]: HIGH | CREB-TAD (CREB TAD): LOW | GRE [9]: LOW | MTT AR-Neg [3]: LOW | AP1 [10]: HIGH

C=C(C)C(=O)/C(=C\c1ccc(Cl)cc1)c1ccccc1 [JN025]
MTT AR-Pos [1]: LOW | ARE [2]: HIGH | MTT AR-Neg [3]: MED | MMTV [4]: HIGH

CN1CCN(C/C(=C\c2ccc(Cl)cc2)C(=O)c2ccccc2)CC1 [JN038]
MTT AR-Pos [1]: HIGH | MTT AR-Neg [3]: MED | MMTV [4]: HIGH
